Source: patent US10072017B2, “Compounds and methods for the treatment of cystic fibrosis” (Flatley Discovery Lab, LLC, priority 2015, dated 2018)

Molecular target: T1, CFTR (Homo sapiens, UniProt P13569, DEL508-508)
T1 construct: Primary CF airway epithelial cells were obtained from the UNC Cystic Fibrosis Tissue Procurement and Cell Culture Core; host or cells: primary CF airway epithelial cells
Test: Equivalent current assay in Primary CF airway epithelial cells (NAUC)
Type: cell-based
Settings: 24 h, normalized to VX809 (3 μM) positive control; for Nauc @ 3 μM: 3 μM test compound; for Nauc @ 10 μM: 10 μM test compound
Outline: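 Primary CF airway epithelia differentiated ≥4 weeks at air-liquid interface, treated basolaterally 24 h at 37 °C with test compounds in combination with VX809, 0.1% DMSO vehicle. Equivalent current recorded after 5 μM benzamil, 10 μM forskolin plus 1 μM VX770, then CFTR-172/bumetanide 20 μM; vehicle-subtracted AUC normalized to 3 μM VX809 (NAUC), median of n≥4, sigmoid fit for EC50.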

T1 sequence (P13569 with tags, fused parts or gaps DEL508-508): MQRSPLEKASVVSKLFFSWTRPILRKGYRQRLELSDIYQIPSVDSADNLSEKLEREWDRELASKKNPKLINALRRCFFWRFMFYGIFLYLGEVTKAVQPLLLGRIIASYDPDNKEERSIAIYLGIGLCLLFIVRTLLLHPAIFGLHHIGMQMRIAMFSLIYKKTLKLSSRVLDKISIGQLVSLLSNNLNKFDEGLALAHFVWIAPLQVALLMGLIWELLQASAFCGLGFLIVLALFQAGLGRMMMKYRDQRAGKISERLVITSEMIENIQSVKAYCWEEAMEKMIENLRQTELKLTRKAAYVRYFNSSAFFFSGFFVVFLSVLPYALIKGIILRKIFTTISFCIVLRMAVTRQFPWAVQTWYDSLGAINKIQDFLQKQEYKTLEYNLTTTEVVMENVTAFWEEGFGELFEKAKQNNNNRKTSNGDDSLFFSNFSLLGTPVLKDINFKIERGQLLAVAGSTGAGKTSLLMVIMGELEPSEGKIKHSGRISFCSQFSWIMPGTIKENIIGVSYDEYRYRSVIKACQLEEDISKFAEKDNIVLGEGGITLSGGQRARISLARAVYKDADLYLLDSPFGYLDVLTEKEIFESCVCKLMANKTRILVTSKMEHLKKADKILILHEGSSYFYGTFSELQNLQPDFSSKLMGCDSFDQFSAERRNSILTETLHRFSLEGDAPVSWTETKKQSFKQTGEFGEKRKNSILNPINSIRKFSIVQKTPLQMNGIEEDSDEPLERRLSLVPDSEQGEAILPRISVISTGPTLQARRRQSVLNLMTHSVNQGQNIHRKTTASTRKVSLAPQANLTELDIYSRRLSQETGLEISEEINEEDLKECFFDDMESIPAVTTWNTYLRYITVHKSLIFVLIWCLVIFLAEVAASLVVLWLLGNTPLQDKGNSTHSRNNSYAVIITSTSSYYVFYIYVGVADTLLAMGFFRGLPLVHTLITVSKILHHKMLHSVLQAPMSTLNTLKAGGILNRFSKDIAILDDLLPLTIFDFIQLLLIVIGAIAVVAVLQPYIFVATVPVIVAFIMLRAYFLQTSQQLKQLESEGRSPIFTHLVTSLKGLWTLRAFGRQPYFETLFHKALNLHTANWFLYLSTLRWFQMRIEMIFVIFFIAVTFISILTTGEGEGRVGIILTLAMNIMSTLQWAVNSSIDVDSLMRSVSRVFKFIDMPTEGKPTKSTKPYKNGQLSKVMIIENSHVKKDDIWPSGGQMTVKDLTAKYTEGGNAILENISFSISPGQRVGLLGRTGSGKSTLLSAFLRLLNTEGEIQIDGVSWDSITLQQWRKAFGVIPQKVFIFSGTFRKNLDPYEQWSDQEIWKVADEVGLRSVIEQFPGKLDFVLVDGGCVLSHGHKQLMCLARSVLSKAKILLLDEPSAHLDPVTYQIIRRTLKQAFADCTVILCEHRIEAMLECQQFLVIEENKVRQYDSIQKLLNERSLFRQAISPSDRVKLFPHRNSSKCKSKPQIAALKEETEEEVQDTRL

Structure (SMILES)	Nauc @ 3 μM	Nauc @ 10 μM
O=C1C2C3CCCN3C3(C(=O)Nc4c(Cl)cc(Cl)cc43)C2C(=O)N1c1cccc2c1OC(F)(F)O2 (centres unmarked) [Example 23]	++ (NAUC “++” refers to an observed NAUC 170-140% of positive control)	+ (NAUC “+” refers to an observed NAUC <140% of positive control)
O=C1C2C3CCCN3C3(C(=O)Nc4c(Cl)cc(Cl)cc43)C2C(=O)N1c1cc(C(F)(F)F)cc(C(F)(F)F)c1 (centres unmarked) [Example 25]	+++ (NAUC “+++” refers to an observed NAUC >170% of positive control)	+++ (NAUC “+++” refers to an observed NAUC >170% of positive control)
O=C1C2C3CCCN3C3(C(=O)Nc4c(Cl)cc(Cl)cc43)C2C(=O)N1c1cc(C(F)(F)F)cc(C(F)(F)F)c1 (centres unmarked) [Example 26]	+ (NAUC “+” refers to an observed NAUC <140% of positive control)	+++ (NAUC “+++” refers to an observed NAUC >170% of positive control)
O=C1C2C3CCCN3C3(C(=O)Nc4c(Cl)cc(Cl)cc43)C2C(=O)N1c1cc(Br)cc(Br)c1 (centres unmarked) [Example 27]	++ (NAUC “++” refers to an observed NAUC 170-140% of positive control)	++ (NAUC “++” refers to an observed NAUC 170-140% of positive control)
O=C1C2C3CCCN3C3(C(=O)Nc4c(Cl)cc(Cl)cc43)C2C(=O)N1c1cc(F)cc(Cl)c1 (centres unmarked) [Example 28]	++ (NAUC “++” refers to an observed NAUC 170-140% of positive control)	+++ (NAUC “+++” refers to an observed NAUC >170% of positive control)
O=C1C2C3CCCN3C3(C(=O)Nc4ccc(C(F)(F)F)cc43)C2C(=O)N1c1cc(Cl)cc(Cl)c1 (centres unmarked) [Example 30]	++ (NAUC “++” refers to an observed NAUC 170-140% of positive control)	+++ (NAUC “+++” refers to an observed NAUC >170% of positive control)
N#Cc1cc(Cl)cc(N2C(=O)C3C4CCCN4C4(C(=O)Nc5c(Cl)cc(Cl)cc54)C3C2=O)c1 (centres unmarked) [Example 31]	+ (NAUC “+” refers to an observed NAUC <140% of positive control)	+++ (NAUC “+++” refers to an observed NAUC >170% of positive control)
O=C1C2CN(C3CCCC3)C3(C(=O)Nc4c(Cl)cc(Cl)cc43)C2C(=O)N1c1cc(Cl)cc(Cl)c1 (centres unmarked) [Example 32]	++ (NAUC “++” refers to an observed NAUC 170-140% of positive control)	+++ (NAUC “+++” refers to an observed NAUC >170% of positive control)
O=C1C2C3CCCN3C3(C(=O)Nc4c(Cl)cc(Cl)cc43)C2C(=O)N1c1cc(Cl)nc(Cl)c1 (centres unmarked) [Example 33]	++ (NAUC “++” refers to an observed NAUC 170-140% of positive control)	+++ (NAUC “+++” refers to an observed NAUC >170% of positive control)
O=C1C2C3CCCN3C3(C(=O)Nc4c(Br)cc(Br)cc43)C2C(=O)N1c1cc(Cl)cc(Cl)c1 (centres unmarked) [Example 34]	+++ (NAUC “+++” refers to an observed NAUC >170% of positive control)	+++ (NAUC “+++” refers to an observed NAUC >170% of positive control)
O=C1C2C3CCCN3C3(C(=O)Nc4c(Cl)cc(Cl)cc43)C2C(=O)N1c1cc(Cl)cc(Br)c1 (centres unmarked) [Example 35]	+ (NAUC “+” refers to an observed NAUC <140% of positive control)	+++ (NAUC “+++” refers to an observed NAUC >170% of positive control)
O=C1C2C3CCCN3C3(C(=O)Nc4c(Cl)cc(F)cc43)C2C(=O)N1c1cc(F)cc(Cl)c1 (centres unmarked) [Example 36]	+ (NAUC “+” refers to an observed NAUC <140% of positive control)	+++ (NAUC “+++” refers to an observed NAUC >170% of positive control)
O=C1C2C3CCCN3C3(C(=O)Nc4c(F)cc(Cl)cc43)C2C(=O)N1c1cc(F)cc(Cl)c1 (centres unmarked) [Example 37]	+ (NAUC “+” refers to an observed NAUC <140% of positive control)	++ (NAUC “++” refers to an observed NAUC 170-140% of positive control)
CC12C(=O)N(c3cc(Cl)cc(Cl)c3)C(=O)C1(C)C1(C(=O)Nc3c(Cl)cc(Cl)cc31)N1CCCC12 (centres unmarked) [Example 39]	+ (NAUC “+” refers to an observed NAUC <140% of positive control)	++ (NAUC “++” refers to an observed NAUC 170-140% of positive control)
O=C1C2C3C[C@H](O)CN3C3(C(=O)Nc4c(Br)cc(Br)cc43)C2C(=O)N1c1cc(Cl)cc(Cl)c1 (some centres unmarked) [Example 40]	+++ (NAUC “+++” refers to an observed NAUC >170% of positive control)	+++ (NAUC “+++” refers to an observed NAUC >170% of positive control)
O=C1C2C3C[C@H](O)CN3C3(C(=O)Nc4c(Cl)cc(Cl)cc43)C2C(=O)N1c1cc(Cl)cc(Br)c1 (some centres unmarked) [Example 41]	++ (NAUC “++” refers to an observed NAUC 170-140% of positive control)	+++ (NAUC “+++” refers to an observed NAUC >170% of positive control)

Structure (SMILES)	Nauc @ 3 μM	Nauc @ 10 μM
O=C1C2C3C[C@H](O)CN3C3(C(=O)Nc4ccc(C(F)(F)F)cc43)C2C(=O)N1c1cc(Cl)cc(Cl)c1 (some centres unmarked) [Example 42]	++ (NAUC “++” refers to an observed NAUC 170-140% of positive control)	++ (NAUC “++” refers to an observed NAUC 170-140% of positive control)
O=C1C2C3C[C@H](O)CN3C3(C(=O)Nc4c(Cl)cc(Cl)cc43)C2C(=O)N1c1cc(C(F)(F)F)cc(C(F)(F)F)c1 (some centres unmarked) [Example 43]	++ (NAUC “++” refers to an observed NAUC 170-140% of positive control)	+++ (NAUC “+++” refers to an observed NAUC >170% of positive control)
CC12C(=O)N(c3cc(Cl)cc(Cl)c3)C(=O)C1C1(C(=O)Nc3c(Cl)cc(Cl)cc31)N1CCCC12 (centres unmarked) [Example 44]	++ (NAUC “++” refers to an observed NAUC 170-140% of positive control)	+ (NAUC “+” refers to an observed NAUC <140% of positive control)
O=C1C2C3C[C@H](O)CN3C3(C(=O)Nc4c(Cl)cc(Cl)cc43)C2C(=O)N1c1cc(Br)cc(Br)c1 (some centres unmarked) [Example 45]	+ (NAUC “+” refers to an observed NAUC <140% of positive control)	+++ (NAUC “+++” refers to an observed NAUC >170% of positive control)
Cc1ccc2c(c1)C1(C(=O)N2)C2C(=O)N(c3cc(Cl)cc(Cl)c3)C(=O)C2C2CCCN21 (centres unmarked) [Example 47]	++ (NAUC “++” refers to an observed NAUC 170-140% of positive control)	++ (NAUC “++” refers to an observed NAUC 170-140% of positive control)
O=C1C2C3CCCN3C3(C(=O)Nc4c(Cl)cc(Cl)cc43)C2C(=O)N1CCCBr (centres unmarked) [Example 48]	++ (NAUC “++” refers to an observed NAUC 170-140% of positive control)	+ (NAUC “+” refers to an observed NAUC <140% of positive control)
O=C1C2C3C[C@H](F)CN3C3(C(=O)Nc4c(Cl)cc(Cl)cc43)C2C(=O)N1c1cc(Cl)cc(Cl)c1 (some centres unmarked) [Example 49]	++ (NAUC “++” refers to an observed NAUC 170-140% of positive control)	+++ (NAUC “+++” refers to an observed NAUC >170% of positive control)
O=C1C2C3CCCN3C3(C(=O)Nc4c(Cl)cc(Cl)cc43)C2C(=O)N1c1cc(Cl)cc(Cl)n1 (centres unmarked) [Example 52]	++ (NAUC “++” refers to an observed NAUC 170-140% of positive control)	+++ (NAUC “+++” refers to an observed NAUC >170% of positive control)
O=C1C2C3CC(F)(F)CN3C3(C(=O)Nc4c(Cl)cc(Cl)cc43)C2C(=O)N1c1cc(Cl)cc(Cl)c1 (centres unmarked) [Example 53]	++ (NAUC “++” refers to an observed NAUC 170-140% of positive control)	++ (NAUC “++” refers to an observed NAUC 170-140% of positive control)
C=C1CC2C3C(=O)N(c4cc(Cl)cc(Cl)c4)C(=O)C3C3(C(=O)Nc4c(Cl)cc(Cl)cc43)N2C1 (centres unmarked) [Example 55]	+ (NAUC “+” refers to an observed NAUC <140% of positive control)	+++ (NAUC “+++” refers to an observed NAUC >170% of positive control)
O=C1C2C3C[C@H](Cl)CN3C3(C(=O)Nc4c(Cl)cc(Cl)cc43)C2C(=O)N1c1cc(Cl)cc(Cl)c1 (some centres unmarked) [Example 57]	+++ (NAUC “+++” refers to an observed NAUC >170% of positive control)	+++ (NAUC “+++” refers to an observed NAUC >170% of positive control)
O=C1C2C3C[C@H](O)CN3C3(C(=O)Nc4c(Cl)cc(Cl)cc43)C2C(=O)N1c1cc(Cl)cc(Cl)n1 (some centres unmarked) [Example 59]	+ (NAUC “+” refers to an observed NAUC <140% of positive control)	+++ (NAUC “+++” refers to an observed NAUC >170% of positive control)
N[C@@H]1CC2C3C(=O)N(c4cc(Cl)cc(Cl)c4)C(=O)C3C3(C(=O)Nc4c(Cl)cc(Cl)cc43)N2C1 (some centres unmarked) [Example 60]	+ (NAUC “+” refers to an observed NAUC <140% of positive control)	++ (NAUC “++” refers to an observed NAUC 170-140% of positive control)
CC1CC2C3C(=O)N(c4cc(Cl)cc(Cl)c4)C(=O)C3C3(C(=O)Nc4c(Cl)cc(Cl)cc43)N2C1 (centres unmarked) [Example 63]	+++ (NAUC “+++” refers to an observed NAUC >170% of positive control)	+++ (NAUC “+++” refers to an observed NAUC >170% of positive control)
[2H]C12C(=O)N(c3cc(Cl)cc(Cl)c3)C(=O)C1([2H])C1(C(=O)Nc3c(Cl)cc(Cl)cc31)N1C[C@@H](O)CC12 (some centres unmarked) [Example 64]	+ (NAUC “+” refers to an observed NAUC <140% of positive control)	++ (NAUC “++” refers to an observed NAUC 170-140% of positive control)
